# Results taken from patent US8815946B2, “Inhibition of proliferation and fibrotic response of activated corneal stromal cells” (University of Pittsburgh—of the Commonwealth System of …, priority 2008, dated 2014).
# “Also recorded” adds a separate entry of the source.
# Tests used:
# [1] = tested on: alpha-smooth muscle actin; assay: Western blot of TGF-β1 activated rabbit corneal keratocytes: alpha-smooth muscle actin; format: cell-based; conditions: TGF-β1 (10 ng/ml)+1% FBS, two days, compared to controls with no treatment, listed as EP
# Protocol: FIGS. 19A and 19B. Western blot analyses: Rabbit corneal keratocytes were isolated and cultured in serum-free DMEM/F12 into 60 mm tissue culture dishes. After 24 hrs of incubation, the media were replaced with DMEM/F12 medium containing TGF-β1(10 ng/ml)+1% FBS without (control) or with EP or EP-derivatives for two days. The cells were extracted in RIPA buffer and the extracts containing 5 μg of total proteins were loaded per lane for Western blot analysis.
# Keratocytes or fibroblasts grown under different culture conditions were extracted in RIPA buffer (9.1 mM dibasic sodium phosphate, 1.7 mM monobasic sodium phosphate, 150 mM NaCl, pH, 7.4, 1% Nonidet P-40, 0.5% sodium deoxycholate, 0.1% SDS, 0.03 TIU/mL aprotinin, 1 mM sodium orthovanadate, and 100 μg/mL phenylmethylsulfonyl fluoride (PMSF)). Aliquots of cell extracts containing 50 or 100 μg protein were subjected to SDS-PAGE. Protein bands on SDS-PAGE were electrophoretically transferred to IMMOBILON-P™ membrane (Millipore Corp., Bedford, Mass.), stained with 0.1% Coomassie blue 250 in 40% methanol/1% acetic acid for 1 minute, destained one to three times with 50% methanol/1% acetic acid, scanned for densitometric comparisons of relative concentrations of proteins per lane, destained with methanol, and subjected to Western blot analysis. Immunoreactive bands were detected using chemiluminescence Western chemiluminescence reagents.
# As described in Example 1, corneal stromal cells were isolated from rabbit corneas and cultured using the same procedures. The keratocytes in serum free media were treated with b-FGF (40 ng/ml)+HS (5 μg/ml) with or without 15 mM EP or 1, 2.5 or 5 mM following EP derivatives: 2-oxopropionic acid 3-methoxyphenyl ester, 2-oxopropionic acid 2-ethoxyethyl ester, 2-oxopropionic acid 2-chloroethyl ester, 2-oxopropionic acid isopropyl ester, 2-oxopropionic acid butyl ester, 2-oxopropionic acid p-tolyl ester, 2-oxopropionic acid tert-butyl ester. […] The relative levels of the expression of specific proteins were analyzed by Western blot analyses of the cell lysates as described supra.
# CD-45+ leukocytes = assay: Mouse corneal wound model, FACS with pan-leukocyte marker CD-45+; format: in vivo, Mus musculus strain C57
# Excerpt: A mouse model of corneal wound healing and inflammation induced by lipopolysacharide (LPS) was used to test the effect of EP. Khatari et al., Invest. Opthalmol. Vis. Sci. (2002) 43:2278-2284. Briefly, mice (Mus musculus strain C57, age approx. 2 months) were obtained from Charles River Laboratories in accordance with institutional protocols and divided into the following treatment groups (with 3 samples in each group):
# Prior to wounding, all mice were anesthetized with an intraperitoneal injection of 50 mg/kg ketamine with 5 mg/kg xylazine. Topical anesthesia was further achieved with an additional 1 drop of 0.5% proparacaine per eye. Once the animal was sufficiently anesthetized, a corneal wound was constructed in each eye using a sterile 26-gauge needle that penetrated the epithelium and the superficial layers of the stroma. This linear scratch extended from the medial to lateral canthus (FIG. 12). 10 μg of the bacterial super-antigen LPS (Pseudomonas aeruginosa lipopolysaccharide, Sigma) was applied to the wound using a 10 μl pipette and allowed to penetrate the cornea for 5 minutes. Addition of bacterial endotoxin ensured a robust inflammatory response.
# The wound was then washed with phosphate buffered saline (PBS/non-pyrogenic dH2O). […] The delivery and concentration of EP was determined according to Devamanoharan et al. (1999); 200(1-2):103-09. […]
# α-SMA [2] = assay: Immunocytochemical analysis of α-SMA expression, rabbit corneal stromal cells; format: cell-based; conditions: 10 mM EP
# Protocol: FIG. 4. Immunocytochemical analysis of α-SMA expression. Rabbit corneal stromal cells in P2 growing in DMEM/F12 with 10% FBS were subcultured into 35 mm tissue culture dishes. After 24 hrs of incubation, the media were replaced with DMEM/F12 medium containing 1% FBS and TGF-β1 with or without (control) 10 mM EP and incubated for four days (media were changed every 24 hours). The cells were fixed and stained for α-SMA (green) using an indirect fluorescence technique as described herein.
# (§1) For immunocytochemical analyses, the cells were cultured on glass cover slips or tissue culture dishes. Cells were rinsed with phosphate-buffered saline (PBS), fixed with paraformaldehyde-lysine-periodate and permeabilized with PIPES buffer containing 0.2% Triton X-100, as described previously (Guerriero et al., Invest. Opthalmol. Vis. Sci. 2007; 48: 627-635). Fixed and permeabilized cells were reacted with 10% heat-inactivated goat serum in PBS, pH 7.5, for 45 minutes to block the nonspecific binding of the secondary antibody, rinsed with PBS, and then treated with the primary and secondary antibodies as described previously (Guerriero et al. Invest. Opthalmol. Vis. Sci. 2007; 48: 627-635). Primary antibodies included monoclonal rat anti-α smooth muscle actin (SMA) and anti-fibronectin. […]
# α-SMA [3] = assay: Immunocytochemical analysis of α-SMA expression, human corneal stromal cells; format: cell-based; conditions: 10 mM EP
# Protocol: FIG. 3. Immunocytochemical analysis of α-SMA expression. Human corneal stromal cells in P2 growing in DMEM/F12 with 10% FBS were subcultured into desired number of 35 mm tissue culture dishes. After 24 hrs of incubation, the media were replaced with DMEM/F12 medium containing 1% FBS and TGF-β1 with or without (control) 10 mM EP and incubated for two and four days (media were changed every 24 hours). The cells were fixed and double stained for α-SMA (green) and phalloidin (red) using an indirect fluorescence technique as described herein.
# as §1
smiles,measurement,setting,value
CCOC(=O)C(C)=O [ethyl pyruvate],alpha-smooth muscle actin levels (Western blot),[1],reduced expression; also recorded: reduced levels
same,inflammatory cells (CD-45+) by FACS,CD-45+ leukocytes; day 1 post-wounding,28.50±12.02
same,inflammatory cells (CD-45+) by FACS,CD-45+ leukocytes; day 2 post-wounding,163.00±57.42
same,TGF-β1 induced expression of α-SMA (immunocytochemical),α-SMA [2],downregulated
same,TGF-β1 induced expression of α-SMA (immunocytochemical),α-SMA [3],downregulated
